Reference: patent US7445765B2, “Radiopharmaceutical for diagnostic imaging containing a technetium-99m nitride heterocomplex” (Nihon Medi-Physics Co., Ltd., priority 2000, dated 2008)

Key:
[1] = Biodistribution of the 99mTc(N) heterocomplexes in rats (organ uptake, heart accumulation, heart/lung and heart/liver ratios); type: in vivo, female Sprague-Dawley rats
Method in brief: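 Female Sprague-Dawley rats (200–250 g, n=3), ketamine/xylazine anaesthesia, got 300–370 kBq of each purified heterocomplex in pH 7.4 phosphate buffer (10% ethanol) via the jugular vein. They were killed at several post-injection times. Heart blood and washed, weighed organs were gamma-counted, taking whole blood as 6.5% of body weight.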

[2] = Measurement of Log k′ by HPLC, PNP5 or PNP6 heterocomplexes; type: physicochemical; settings: HPLC C18, methanol/phosphate buffer (pH 7.4, 0.02M), 1.0 mL/min; extrapolated to 0% organic solvent
Procedure: Log k′o values, measured at various compositions of the mobile phase, were determind for the ^99mTc(N) heterocomplexes obtained using PNP5 or PNP6 as a bisphosphinoamine compound. The analysis of the relationship between Log k′o values and the mobile-phase composition yielded extrapolated Log k′ values as a measure of the partitioning between the hydrophobic stationary phase and water. The Log k′ values were extrapolated from the linear part of the curve.
TLC chromatography was carried out on silica-gel plates and using the mixture ethanol/chloroform/toluene/[NH4][CH3COO] (0.5 M) (5:3:3:0.5) as mobile phase. […] HPLC analysis was performed on a Beckman System Gold instrument equipped with a Programmable Solvent Module 126, a scanning detector Module 166 and a radioisotope detector Module 170. A C18 reversed-phase precolumn (Ultrasphere Beckman, 4.6×45 mm), a C18 reversed-phase column (Ultrasphere Beckman, 4.6×250 mm) and a 100-μL loop were used. The mobile phase was methanol in various mixtures (% v/v) with a phosphate buffer (pH=7.4, 0.02M) at a flow rate of 1.0 mL min^−1. Before injection, all solutions were purified using a CM Sep-Pak cartridge. […]

Biodistribution in rats: Adrenal glands ([1]; 0 min post injection): 2.87 % dose/g
Biodistribution in rats: Blood ([1]; 0 min post injection): 6.65 % dose/g
Biodistribution in rats: Brain ([1]; 0 min post injection): 0.45 % dose/g
Biodistribution in rats: Heart ([1]; 0 min post injection): 5.01 % dose/g
Biodistribution in rats: Intestine ([1]; 0 min post injection): 1.71 % dose/g
Biodistribution in rats: Kidneys ([1]; 0 min post injection): 3.71 % dose/g
Biodistribution in rats: Liver ([1]; 0 min post injection): 0.82 % dose/g
Biodistribution in rats: Lungs ([1]; 0 min post injection): 6.58 % dose/g
Biodistribution in rats: Muscle ([1]; 0 min post injection): 0.09 % dose/g
Biodistribution in rats: Spleen ([1]; 0 min post injection): 1.75 % dose/g
Biodistribution in rats: Submax. glands ([1]; 0 min post injection): 0.16 % dose/g
Biodistribution in rats: Adrenal glands ([1]; 2 min post injection): 3.95 % dose/g
Biodistribution in rats: Blood ([1]; 2 min post injection): 0.11 % dose/g
Biodistribution in rats: Brain ([1]; 2 min post injection): 0.03 % dose/g
Biodistribution in rats: Heart ([1]; 2 min post injection): 3.94 % dose/g
Biodistribution in rats: Intestine ([1]; 2 min post injection): 7.97 % dose/g
Biodistribution in rats: Kidneys ([1]; 2 min post injection): 14.69 % dose/g
Biodistribution in rats: Liver ([1]; 2 min post injection): 2.66 % dose/g
Biodistribution in rats: Lungs ([1]; 2 min post injection): 0.99 % dose/g
Biodistribution in rats: Muscle ([1]; 2 min post injection): 0.20 % dose/g
Biodistribution in rats: Spleen ([1]; 2 min post injection): 2.68 % dose/g
Biodistribution in rats: Submax. glands ([1]; 2 min post injection): 1.77 % dose/g
Biodistribution in rats: Adrenal glands ([1]; 10 min post injection): 3.73 % dose/g
Biodistribution in rats: Blood ([1]; 10 min post injection): 0.03 % dose/g
Biodistribution in rats: Brain ([1]; 10 min post injection): 0.01 % dose/g
Biodistribution in rats: Heart ([1]; 10 min post injection): 3.69 % dose/g
Biodistribution in rats: Intestine ([1]; 10 min post injection): 9.04 % dose/g
Biodistribution in rats: Kidneys ([1]; 10 min post injection): 9.16 % dose/g
Biodistribution in rats: Liver ([1]; 10 min post injection): 1.61 % dose/g
Biodistribution in rats: Lungs ([1]; 10 min post injection): 0.88 % dose/g
Biodistribution in rats: Muscle ([1]; 10 min post injection): 0.21 % dose/g
Biodistribution in rats: Spleen ([1]; 10 min post injection): 1.79 % dose/g
Biodistribution in rats: Submax. glands ([1]; 10 min post injection): 1.79 % dose/g
Biodistribution in rats: Adrenal glands ([1]; 20 min post injection): 3.00 % dose/g
Biodistribution in rats: Blood ([1]; 20 min post injection): 0.02 % dose/g
Biodistribution in rats: Brain ([1]; 20 min post injection): 0.01 % dose/g
Biodistribution in rats: Heart ([1]; 20 min post injection): 3.63 % dose/g
Biodistribution in rats: Intestine ([1]; 20 min post injection): 9.63 % dose/g
Biodistribution in rats: Kidneys ([1]; 20 min post injection): 6.58 % dose/g
Biodistribution in rats: Liver ([1]; 20 min post injection): 0.96 % dose/g
Biodistribution in rats: Lungs ([1]; 20 min post injection): 0.57 % dose/g
Biodistribution in rats: Muscle ([1]; 20 min post injection): 0.17 % dose/g
Biodistribution in rats: Spleen ([1]; 20 min post injection): 1.41 % dose/g
Biodistribution in rats: Submax. glands ([1]; 20 min post injection): 1.57 % dose/g
Biodistribution in rats: Adrenal glands ([1]; 30 min post injection): 3.36 % dose/g
Biodistribution in rats: Blood ([1]; 30 min post injection): 0.02 % dose/g
Biodistribution in rats: Brain ([1]; 30 min post injection): 0.01 % dose/g
Biodistribution in rats: Heart ([1]; 30 min post injection): 3.73 % dose/g
Biodistribution in rats: Intestine ([1]; 30 min post injection): 6.70 % dose/g
Biodistribution in rats: Kidneys ([1]; 30 min post injection): 6.70 % dose/g
Biodistribution in rats: Liver ([1]; 30 min post injection): 0.72 % dose/g
Biodistribution in rats: Lungs ([1]; 30 min post injection): 0.64 % dose/g
Biodistribution in rats: Muscle ([1]; 30 min post injection): 0.19 % dose/g
Biodistribution in rats: Spleen ([1]; 30 min post injection): 0.92 % dose/g
Biodistribution in rats: Submax. glands ([1]; 30 min post injection): 1.88 % dose/g
Biodistribution in rats: Adrenal glands ([1]; 60 min post injection): 4.17 % dose/g
Biodistribution in rats: Blood ([1]; 60 min post injection): 0.01 % dose/g
Biodistribution in rats: Brain ([1]; 60 min post injection): 0.01 % dose/g
Biodistribution in rats: Heart ([1]; 60 min post injection): 3.76 % dose/g
Biodistribution in rats: Intestine ([1]; 60 min post injection): 6.52 % dose/g
Biodistribution in rats: Kidneys ([1]; 60 min post injection): 5.73 % dose/g
Biodistribution in rats: Liver ([1]; 60 min post injection): 0.20 % dose/g
Biodistribution in rats: Lungs ([1]; 60 min post injection): 0.46 % dose/g
Biodistribution in rats: Muscle ([1]; 60 min post injection): 0.21 % dose/g
Biodistribution in rats: Spleen ([1]; 60 min post injection): 0.41 % dose/g
Biodistribution in rats: Submax. glands ([1]; 60 min post injection): 1.84 % dose/g
Biodistribution in rats: Adrenal glands ([1]; 120 min post injection): 3.44 % dose/g
Biodistribution in rats: Blood ([1]; 120 min post injection): 0.01 % dose/g
Biodistribution in rats: Brain ([1]; 120 min post injection): 0.00 % dose/g
Biodistribution in rats: Heart ([1]; 120 min post injection): 3.31 % dose/g
Biodistribution in rats: Intestine ([1]; 120 min post injection): 6.57 % dose/g
Biodistribution in rats: Kidneys ([1]; 120 min post injection): 3.48 % dose/g
Biodistribution in rats: Liver ([1]; 120 min post injection): 0.10 % dose/g
Biodistribution in rats: Lungs ([1]; 120 min post injection): 0.25 % dose/g
Biodistribution in rats: Muscle ([1]; 120 min post injection): 0.23 % dose/g
Biodistribution in rats: Spleen ([1]; 120 min post injection): 0.21 % dose/g
Biodistribution in rats: Submax. glands ([1]; 120 min post injection): 2.09 % dose/g
LOG k′ [2]: 3.69
SMILES: CCOCCN1CC[P](CCCOC)(CCCOC)[99Tc+]2(#[N])([S]C(N(CCOCC)CCOCC)=[S]2)[P](CCCOC)(CCCOC)CC1 [[^99mTc(N) (PNP5) (DBODC)]^+]
